Data taken from patent US20100218416A1, “HYDROXYMETHYLFURFURAL ETHERS FROM SUGARS OR HMF AND BRANCHED ALCOHOLS” (FURANIX TECHNOLOGIES B.V., priority 2007, published 2010).
Like-named read-outs stand apart in the source and are kept apart here.

What was measured:
[1] = Fuel solubility: miscibility in blends with commercial diesel; type: physicochemical
From the text: Fuel solubility is a primary concern for diesel fuel applications. Not all highly polar oxygenates have good solubility in the current commercial diesel fuels.
The engine is run stationary with regular diesel initially, after which the fuel supply is switched to the 40 vol % tBMF-diesel blend.

[2] = Oxidation stability of blend with additive free diesel fuel (NF en ISO 12205); type: physicochemical; conditions: 0.1 vol % blend with additive free diesel fuel
Protocol: Likewise, oxygenated fuel additives, certainly when containing an aldehyde functional group, often reduce the oxidation stability of the base diesel fuel. A 0.1 vol % blend of tBMF with additive free diesel fuel was prepared at an outside laboratory for oxidation stability determination according to NF en ISO 12205 certified methods.

With `CCOCc1ccc(C=O)o1` [EMF, ethoxymethylfurfural, reference compound] as the compound, how does the “miscibility with commercial diesel” value ([1]; 5 vol % blend with commercial diesel) read?
The value was “completely miscible”.

What about the “miscibility with commercial diesel” value ([1]; 25 vol % blend with commercial diesel) of the same compound?
The value was “phase separation occurs”.

What about the “miscibility with commercial diesel” value ([1]; 40 vol % blend with commercial diesel) of the same compound?
Its value is “phase separation occurs”.

Which results are given for `CC(C)(C)OCc1ccc(C=O)o1` [tBMF, 5-(tert-Butoxymethyl)furfural]?
miscibility with commercial diesel [1]: completely miscible; mixing or flocculation problems [1]: does not yield any mixing or flocculation problems; oxidation stability versus reference additive-free diesel [2]: same oxidation stability
